# Assay results taken from patent US12612424B2, “HPK1 inhibitors and uses thereof” (Regor Pharmaceuticals, Inc., priority 2019, dated 2026).
# Where two headings read alike, the source gives them in different places.
# Tests used:
# HPK1 = HPK1 (Homo sapiens, UniProt Q92918); experiment: HPK1 biochemical assay (ADP-GLO Kinase Assay)
# Outline: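 HPK1 (0.6 ng/μL final) activity was followed with MBP substrate and 10 μM ATP in Tris pH 7.5/MgCl2/BSA/DTT buffer, measured by ADP-Glo luminescence. Compounds were tested as 3-fold dilutions from 10 μM. IC50 came from a three-parameter logistic fit, with inhibition normalised to high/low controls.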
# JAK3 = molecular target: T1, JAK3 (Homo sapiens, UniProt P52333); experiment: JAK3 biochemical assay (ADP-GLO Kinase Assay); settings: for JAKs/HPK1 IC50 Ratio, B* / JAKs/HPK1 IC50 Ratio, N*: ratio of JAK3 IC50 to HPK1 IC50; for JAKs/HPK1 IC50 Ratio, B*: first testing facility; for JAKs/HPK1 IC50 Ratio, N*: second testing facility
# T1 construct: purchased Thermo fisher PV3855
# T1 sequence (P52333 781-1124 limits assumed): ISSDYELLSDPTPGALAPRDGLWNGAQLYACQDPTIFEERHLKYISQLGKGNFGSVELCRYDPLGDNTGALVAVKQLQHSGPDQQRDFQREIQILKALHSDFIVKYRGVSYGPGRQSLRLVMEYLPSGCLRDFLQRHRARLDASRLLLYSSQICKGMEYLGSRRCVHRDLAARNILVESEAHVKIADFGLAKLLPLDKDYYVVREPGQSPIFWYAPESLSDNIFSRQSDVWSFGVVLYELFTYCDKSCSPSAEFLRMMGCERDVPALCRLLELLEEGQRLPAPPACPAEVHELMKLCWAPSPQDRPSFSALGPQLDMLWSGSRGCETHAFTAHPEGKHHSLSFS
# Outline: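 Luminescent ADP-Glo readout after a 60 min, 25 °C reaction of JAK3 (0.78 ng) on Poly(E4Y1) (0.2 μg/μL) at 4 μM ATP, Tris pH 7.5 buffer with MgCl2, BSA and DTT. Compounds tested 10 μM down to 0.508 nM in 3-fold steps; % inhibition normalised to DMSO and reference-compound controls, IC50 from three-parameter fit.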
# [1] = B*: testing performed in a first testing facility, read-out: HPK1 IC50 (nM) Relative, B*
# [2] = B*: testing performed in a first testing facility, read-out: JAK3 IC50 (nM) Relative, B*
# [3] = N*: testing performed in a second testing facility, read-out: HPK1 IC50 (nM) Relative, N*
# [4] = N*: testing performed in a second testing facility, read-out: JAK3 IC50 (nM) Relative, N*
# HPK1, sequence (Q92918 whole entry): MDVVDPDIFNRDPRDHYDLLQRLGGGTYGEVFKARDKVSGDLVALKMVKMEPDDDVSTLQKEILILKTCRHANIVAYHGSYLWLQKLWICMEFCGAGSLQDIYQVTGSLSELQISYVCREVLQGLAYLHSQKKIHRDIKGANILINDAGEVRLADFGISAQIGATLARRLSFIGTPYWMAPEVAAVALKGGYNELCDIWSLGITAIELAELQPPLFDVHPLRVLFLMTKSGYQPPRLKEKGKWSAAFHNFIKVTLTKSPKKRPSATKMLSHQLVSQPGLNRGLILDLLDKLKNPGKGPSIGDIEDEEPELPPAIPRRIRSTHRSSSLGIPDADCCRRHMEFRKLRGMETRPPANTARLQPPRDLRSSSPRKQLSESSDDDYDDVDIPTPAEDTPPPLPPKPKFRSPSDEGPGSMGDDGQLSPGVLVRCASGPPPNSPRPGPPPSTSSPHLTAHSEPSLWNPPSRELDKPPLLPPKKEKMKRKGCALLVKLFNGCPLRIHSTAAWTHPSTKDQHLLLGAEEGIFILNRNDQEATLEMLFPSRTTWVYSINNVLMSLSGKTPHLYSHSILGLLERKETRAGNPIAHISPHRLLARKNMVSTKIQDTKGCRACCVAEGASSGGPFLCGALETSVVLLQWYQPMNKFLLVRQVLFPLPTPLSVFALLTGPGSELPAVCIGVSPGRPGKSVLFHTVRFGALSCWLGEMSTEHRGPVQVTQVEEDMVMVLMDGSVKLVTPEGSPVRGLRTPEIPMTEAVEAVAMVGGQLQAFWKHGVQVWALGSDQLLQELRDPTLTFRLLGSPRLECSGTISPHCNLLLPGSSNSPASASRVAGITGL
Structure (SMILES),IC50 (HPK1; [1]) [nM],IC50 (JAK3; [2]) [nM],"JAKs/HPK1 IC50 Ratio, B* (JAK3)",IC50 (HPK1; [3]) [nM],IC50 (JAK3; [4]) [nM],"JAKs/HPK1 IC50 Ratio, N* (JAK3)"
"COc1cc2c(cc1Nc1ncc(Cl)c(N3CC(C(=O)O)c4ccccc43)n1)CN(C)CC2 (single isomer, unassigned) [Example 96]",≤ 100,≤ 100,80,,,
"COc1cc2c(cc1Nc1ncc(Cl)c(N3C[C@](C)(C(=O)O)c4ccccc43)n1)CN(C)CC2 (single isomer, unassigned) [Example 118]",≤ 100,> 1000,80,,,
"COc1cc2c(cc1Nc1ncc(Cl)c(N3C[C@@](C)(C(=O)O)c4ccccc43)n1)CN(C)CC2 (single isomer, unassigned) [Example 119]",≤ 100,≤ 100,10,,,
"COc1cc2c(cc1Nc1ncc(Cl)c(N3CC(C)(CC(=O)O)c4ccccc43)n1)CN(C)CC2 (single isomer, unassigned) [Example 147]",≤ 100,> 1000,132,,,
"COc1cc2c(cc1Nc1ncc(Cl)c(N3CC(C)(CC(=O)O)c4ccccc43)n1)CN(C)CC2 (single isomer, unassigned) [Example 148]",≤ 100,≤ 100,209,,,
"COc1cc2c(cc1Nc1ncc(Cl)c(N3CC(C)(CC(=O)O)c4ccc(F)cc43)n1)CN(C)CC2 (single isomer, unassigned) [Example 152]",≤ 100,100 to 500,253,,,
"COc1cc2c(cc1Nc1ncc(Cl)c(N3CC(C)(CC(=O)O)c4ccc(F)cc43)n1)CN(C)CC2 (single isomer, unassigned) [Example 153]",≤ 100,> 1000,358,,,
"COc1cc2c(cc1Nc1ncc(Cl)c(-n3ccc4ccccc43)n1)CN(C)CC2 [Example 2, N-(5-chloro-4-(1H-indol-1-yl)pyrimidin-2-yl)-6-methoxy-2-methyl-1,2,3,4-tetrahydroisoquinolin-7-amine]",≤ 100,,,≤ 100,> 1000,642
"COc1cc2c(cc1Nc1ncc(Cl)c(N3CCc4ccccc43)n1)CN(C)CC2 [Example 4, N-(5-Chloro-4-(indolin-1-yl)pyrimidin-2-yl)-6-methoxy-2-methyl-1,2,3,4-tetrahydroisoquinolin-7-amine]",≤ 100,> 1000,337,≤ 100,100 to 500,601
COc1cc2c(cc1Nc1ncc(Cl)c(-n3cc(C(=O)N(C)C)c4ccccc43)n1)CN(C)CC2 [Example 8],≤ 100,,,≤ 100,> 1000,>2457
"COc1cc2c(cc1Nc1ncc(Cl)c(-n3cnc4ccccc43)n1)CN(C)CC2 [Example 9, N-(4-(1H-benzo[d]imidazol-1-yl)-5-chloropyrimidin-2-yl)-6-methoxy-2-methyl-1,2,3,4-tetrahydroisoquinolin-7-amine]",≤ 100,,,≤ 100,> 1000,571
"COc1cc2c(cc1Nc1ncc(C(F)(F)F)c(-n3ccc4ccccc43)n1)CN(C)CC2 [Example 10, N-(4-(1H-indol-1-yl)-5-(trifluoromethyl)pyrimidin-2-yl)-6-methoxy-2-methyl-1,2,3,4-tetrahydroisoquinolin-7-amine]",≤ 100,> 1000,>298,,,
"COc1cc2c(cc1Nc1ncc(Cl)c(N3CCc4cc(Cl)ccc43)n1)CN(C)CC2 [Example 13, N-(5-chloro-4-(5-chloroindolin-1-yl)pyrimidin-2-yl)-6-methoxy-2-methyl-1,2,3,4-tetrahydroisoquinolin-7-amine]",≤ 100,500 to 1000,62,,,
"CN1CCc2ccc(Nc3ncc(Cl)c(N4CCc5ccccc54)n3)cc2C1 [Example 14, N-(5-Chloro-4-(indolin-1-yl)pyrimidin-2-yl)-2-methyl-1,2,3,4-tetrahydroisoquinolin-7-amine]",≤ 100,≤ 100,6,≤ 100,≤ 100,11
"CN1CCc2cc(Cl)c(Nc3ncc(Cl)c(N4CCc5ccccc54)n3)cc2C1 [Example 15, 6-Chloro-N-(5-chloro-4-(indolin-1-yl)pyrimidin-2-yl)-2-methyl-1,2,3,4-tetrahydroisoquinolin-7-amine]",≤ 100,> 1000,174,,,
"COc1cc2c(cc1Nc1ncc(Cl)c(N3CCc4ncccc43)n1)CN(C)CC2 [Example 16, N-(5-chloro-4-(2,3-dihydro-1H-pyrrolo[3,2-b]pyridin-1-yl)pyrimidin-2-yl)-6-methoxy-2-methyl-1,2,3,4-tetrahydroisoquinolin-7-amine]",≤ 100,> 1000,,,,
"COc1cc2c(cc1Nc1ncc(Cl)c(N3CCc4ccc(Cl)cc43)n1)CN(C)CC2 [Example 18, N-(5-chloro-4-(6-chloroindolin-1-yl)pyrimidin-2-yl)-6-methoxy-2-methyl-1,2,3,4-tetrahydroisoquinolin-7-amine]",≤ 100,> 1000,>446,,,
"COc1cc2c(cc1Nc1ncc(Cl)c(N3CC(S(C)(=O)=O)c4ccccc43)n1)CN(C)CC2 (stereo not shown) [Example 81, N-(5-chloro-4-(3-(methylsulfonyl)indolin-1-yl)pyrimidin-2-yl)-6-methoxy-2-methyl-1,2,3,4-tetrahydroisoquinolin-7-amine]",≤ 100,500 to 1000,444,,,
"COc1cc2c(cc1Nc1ncc(Cl)c(-n3cc(S(N)(=O)=O)c4ccccc43)n1)CN(C)CC2 [Example 83, 1-(5-Chloro-2-((6-methoxy-2-methyl-1,2,3,4-tetrahydroisoquinolin-7-yl)amino)pyrimidin-4-yl)-1H-indole-3-sulfonamide]",≤ 100,> 1000,232,,,
"COc1cc2c(cc1Nc1ncc(Cl)c(N3CC4(CC4)c4ccccc43)n1)CN(C)CC2 [Example 84, N-(5-chloro-4-(spiro[cyclopropane-1,3′-indolin]-1′-yl)pyrimidin-2-yl)-6-methoxy-2-methyl-1,2,3,4-tetrahydroisoquinolin-7-amine]",≤ 100,100 to 500,,,,
COc1cc2c(cc1Nc1ncc(Cl)c(N3CCc4cc(P(C)(C)=O)ccc43)n1)CN(C)CC2 [Example 86],≤ 100,> 1000,67,,,
COc1cc2c(cc1Nc1ncc(Cl)c(N3CC(CO)c4ccccc43)n1)CN(C)CC2 (stereo not shown) [Example 87],≤ 100,100 to 500,,,,
COc1cc2c(cc1Nc1ncc(Cl)c(N3CC(P(C)(C)=O)c4ccccc43)n1)CN(C)CC2 (stereo not shown) [Example 88],≤ 100,> 1000,,,,
"COc1cc2c(cc1Nc1ncc(Cl)c(N3CCc4cc(C(F)F)ccc43)n1)CN(C)CC2 [Example 90, N-(5-chloro-4-(5-(difluoromethyl)indolin-1-yl)pyrimidin-2-yl)-6-methoxy-2-methyl-1,2,3,4-tetrahydroisoquinolin-7-amine]",≤ 100,> 1000,413,,,
"COc1cc2c(cc1Nc1ncc(Cl)c(N3CCc4ccc(C(F)F)cc43)n1)CN(C)CC2 [Example 91, N-(5-chloro-4-(6-(difluoromethyl)indolin-1-yl)pyrimidin-2-yl)-6-methoxy-2-methyl-1,2,3,4-tetrahydroisoquinolin-7-amine]",≤ 100,> 1000,>1500,,,
"COc1cc2c(cc1Nc1ncc(Cl)c(N3CCc4c(C(F)F)cccc43)n1)CN(C)CC2 [Example 92, N-(5-chloro-4-(4-(difluoromethyl)indolin-1-yl)pyrimidin-2-yl)-6-methoxy-2-methyl-1,2,3,4-tetrahydroisoquinolin-7-amine]",≤ 100,> 1000,393,,,
COc1cc2c(cc1Nc1ncc(Cl)c(-n3cc(C4(O)COC4)c4ccccc43)n1)CN(C)CC2 [Example 93],100 to 500,> 1000,,,,
"CNC(=O)C1CN(c2nc(Nc3cc4c(cc3OC)CCN(C)C4)ncc2Cl)c2ccccc21 (stereo not shown) [Example 97, 1-(5-Chloro-2-((6-methoxy-2-methyl-1,2,3,4-tetrahydroisoquinolin-7-yl)amino)pyrimidin-4-yl)-N-methylindoline-3-carboxamide]",≤ 100,> 1000,800,,,
COc1cc2c(cc1Nc1ncc(Cl)c(N3CC(C(=O)NS(C)(=O)=O)c4ccccc43)n1)CN(C)CC2 (stereo not shown) [Example 98],≤ 100,> 1000,508,,,
"COc1cc2c(cc1Nc1ncc(Cl)c(N3CC(C#N)c4ccccc43)n1)CN(C)CC2 (stereo not shown) [Example 99, 1-(5-Chloro-2-((6-methoxy-2-methyl-1,2,3,4-tetrahydroisoquinolin-7-yl)amino)pyrimidin-4-yl)indoline-3-carbonitrile]",≤ 100,≤ 100,100,,,
